Source: patent US20160177395A1, “BIOMARKERS FOR THE PREDICTION OF RENAL INJURY” (priority 2007, published 2016)
Where “and” joins values, the source holds several entries; their conditions need not be identical. Equal values may be shown once.

Test system: kidney tissues of treated or untreated rats
Assay: Real-time qRT-PCR of marker transcripts in kidney tissue panel, discovery stage (Table 22)
Assay type: in vivo, rat
Parameters: AI502869_DB71_seg0 normalized Real Time PCR expression: unit not given beside the values
Settings: rat kidney, listed as Cis
Protocol: Before RT preparation the RNA was treated with DNA-free (Ambion, cat. No. AM1906) DNase treatment and removal—according to manufacturer protocol. DNase procedure was repeated until no DNA is detected in a PCR reaction using the RNA samples.
The mixture is then incubated for 5 min at 65° C. and then quickly chilled on ice. Thereafter, 20 μl of 5× SuperscriptII first strand buffer (Invitrogen, Cat. No. Y00146), 9.6 μl 0.1M DTT (Invitrogen, Cat. No. Y00147) and 160 units RNasin (Promega, Cat. No. N251A) are added, and the mixture is incubated for 10 min at 25° C., followed by further incubation at 42° C. for 2 min. […] The resulting cDNA is diluted 1:20 in TE buffer (10 mM Tris pH=8, 1 mM EDTA pH=8).
cDNA (5 μl), prepared as described above, is used as a template in Real-Time PCR reactions using the SYBR Green I assay (PE Applied Biosystem) with specific primers in 100 nM concentration if not indicated otherwise and UNG Enzyme (Eurogentech or equal) Amplification is effected as follows: 50° C. for 2 min, 95° C. for 10 min, and then 40 cycles of 95° C. for 15 sec, followed by 60° C. for 1 min (if not indicated otherwise). Amplification step is followed by dissociation step. Detection is performed by using the PE Applied Biosystem SDS 7000. The cycle in which the reactions achieved a threshold level (Ct) of fluorescence is registered and is used to calculate the relative transcript quantity in the RT reactions. Non-detected samples are assigned Ct value of 41 and are calculated accordingly. The relative quantity is calculated using the equation Q=efficiencŷ-Ct. The efficiency of the PCR reaction is calculated from a standard curve, created by using serial dilutions of several reverse transcription (RT) reactions. To minimize inherent differences in the RT reaction, the resulting relative quantities are normalized to normalization factor calculated as follows: […]
The relative quantity (Q) of each housekeeping gene in each sample is calculated as described above. In order to calculate the “relative Q relative to MED” each Q for each HSKP gene is divided by the median quantity of this gene in all panel samples. To finally achieve the normalization factor of each sample the geometric mean of all four “relative Q relative to MED” was calculated. The normalization factor was then used for further calculations.
The markers of the present invention were tested with regard to their expression in a panel of kidney tissues samples from treated and control rats. Unless otherwise noted, all experimental data relates to the novel polynucleotides and proteins of the present invention, named according to the segment being tested (as expression was tested through RT-PCR as described). Tests were then performed as described in the “Materials and Experimental Procedures” section above.
The qRT-PCR measurements were normalized according to each samples normalization factor as described in “RT Preparation and Real-Time qRT-PCR Analysis” and further multiplied by a constant factor for ease of viewing.

[1] = day5, individual animals (F and M)
[2] = day28, individual animals (F and M)

N.N.[Cl][Pt][Cl] [Cisplatin]
AW919147_DB71_seg0 normalized Real Time PCR expression (day1, individual animals): 0.8 and 1.09 and 0.87 (2×) and 0.88
BI293562_DB71_seg2 normalized Real Time PCR expression (day1, individual animals): 0.74 and 0.5 and 0.38 and 0.7 and 0.39 and 0.71
H31045_DB71_seg5 normalized Real Time PCR expression (day1, individual animals): 0.24 and 0.28 and 0.22 and 0.82 and 0.21 and 1.22
H31799_DB71_seg23 normalized Real Time PCR expression (day1, individual animals): 1.03 and 1.09 and 1.22
H31883_DB71_seg13 normalized Real Time PCR expression (day1, individual animals): 2.03 and 0.74 and 0.71 and 1.52
H33998_DB71_seg19 normalized Real Time PCR [1]: 1.79 and 1.84 and 1.95 and 1.49 and 0.46 and 2.14
MUSCYCG1R_DB81_seg15-17 normalized Real Time PCR [1]: 3.12 and 3.59 and 2.07 and 2.31 and 0.92 and 2.34
RATLRFI_DB71_seg9 normalized Real Time PCR [1]: 0.79 and 0.44 and 0.32 and 0.65 and 0.34 and 1.97
RATRAB13X_DB71_seg11-13 normalized Real Time PCR [1]: 1.01 and 1.02 and 0.74
RNU24174_DB71_seg8 normalized Real Time PCR [1]: 0.97 and 0.7 and 0.6 and 1.3 and 0.31 and 3.6
W41270_DB81_seg11 normalized Real Time PCR [1]: 1.97 and 1.9 and 1.79 and 1.51 and 3.12
W64472_DB81_seg2 normalized Real Time PCR [1]: 2.23 and 2.1 and 1.99 and 2.64 and 0.95 and 4.55
W83813_DB81_seg27 normalized Real Time PCR [1]: 2.12 (2×) and 2.25 and 1.39 and 0.94 and 1.41
AA686189_DB71_seg6 normalized Real Time PCR expression (day5, individual animals): 0.93 and 0.76 and 1.5 and 0.69 and 4.48
AA799594_DB71_seg0 normalized Real Time PCR expression (day5, individual animals): 1.34 and 1.11 and 0.93 and 0.71 and 0.75
AA964541_DB71_seg0 normalized Real Time PCR expression (day5, individual animals): 0.99 and 0.74 and 0.76 and 1.94 and 0.67 and 4.8
AI045075_DB71_seg6 normalized Real Time PCR expression (day5, individual animals): 0.86 and 0.53 and 0.76 and 1.93 and 0.81 and 1.33
AI454051_DB71_seg0 normalized Real Time PCR expression (day5, individual animals): 1.43 and 1.39 and 0.92 and 0.86
AI502869_DB71_seg0 normalized Real Time PCR expression (day5, individual animals): 0.8 and 0.93 and 0.74 and 0.52 and 0.61
AW919147_DB71_seg0 normalized Real Time PCR expression (day5, individual animals): 1.39 and 0.83 and 0.8 and 0.88
BI293562_DB71_seg2 normalized Real Time PCR expression (day5, individual animals): 0.74 and 0.67 and 0.7 and 3.45 and 0.81 and 1.76
H31045_DB71_seg5 normalized Real Time PCR expression (day5, individual animals): 1.8 and 0.34 and 0.51 and 3.25 and 0.23 and 1.66
H31799_DB71_seg23 normalized Real Time PCR expression (day5, individual animals): 1.1 and 0.74 and 1.23 and 0.92
H31883_DB71_seg13 normalized Real Time PCR expression (day5, individual animals): 1.44 and 1.2 and 1.73 and 1.3 and 2.43
H33998_DB71_seg19 normalized Real Time PCR [2]: 0.55 and 0.69 and 0.85 and 0.61 and 0.62 and 0.41
MUSCYCG1R_DB81_seg15-17 normalized Real Time PCR [2]: 1.96 and 2.57 and 2.7 and 2.09 and 2.31 and 1.93
RATLRFI_DB71_seg9 normalized Real Time PCR [2]: 2.33 and 3.05 and 3.8 and 3.03 and 2.4 and 2.26
RATRAB13X_DB71_seg11-13 normalized Real Time PCR [2]: 1.62 and 1.78 and 1.57 and 1.24 and 1.31
RNU24174_DB71_seg8 normalized Real Time PCR [2]: 8.38 and 12.63 and 12.14 and 10.21 and 7.3 and 8.08
W41270_DB81_seg11 normalized Real Time PCR [2]: 1.45 (2×) and 1.8 and 1.48 and 1.94 and 1.11
W64472_DB81_seg2 normalized Real Time PCR [2]: 1.81 and 3.16 and 2.87 and 2.8 and 3.04 and 1.65
W83813_DB81_seg27 normalized Real Time PCR [2]: 0.71 and 0.7 and 0.78 and 0.51 (2×) and 0.57
AA686189_DB71_seg6 normalized Real Time PCR expression (day28, individual animals): 0 and 3.57 and 6.06 and 3.15 and 4.29 and 3.86
AA799594_DB71_seg0 normalized Real Time PCR expression (day28, individual animals): 0.74 and 0.64 and 0.52 and 0.36 and 0.97 and 0.62
AA964541_DB71_seg0 normalized Real Time PCR expression (day28, individual animals): 2.63 and 5.28 and 6.85 and 3.72 and 4.71 and 3.97
AI045075_DB71_seg6 normalized Real Time PCR expression (day28, individual animals): 2.17 and 3.09 and 3.37 and 3.18 and 2.72 and 1.57
AI454051_DB71_seg0 normalized Real Time PCR expression (day28, individual animals): 0.68 and 0.8 and 0.87 and 0.73 and 0.82 and 0.78
AI502869_DB71_seg0 normalized Real Time PCR expression (day28, individual animals): 1.03 (2×) and 0.74 and 1.35 and 0.95
AW919147_DB71_seg0 normalized Real Time PCR expression (day28, individual animals): 0.54 (2×) and 0.72 and 0.66 and 0.84
BI293562_DB71_seg2 normalized Real Time PCR expression (day28, individual animals): 5.98 and 12.27 and 8.01 and 6.24 and 2.93 and 3.33
H31045_DB71_seg5 normalized Real Time PCR expression (day28, individual animals): 0.73 (2×) and 0.81 and 0.88 and 2.92 and 2.96
H31799_DB71_seg23 normalized Real Time PCR expression (day28, individual animals): 1.15 and 0.98 and 0.88 and 0.9
H31883_DB71_seg13 normalized Real Time PCR expression (day28, individual animals): 2.72 and 4.07 and 3.83 and 2.41 and 3.37 and 2.23
